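The compound was tested at five concentrations on cells cultured in 96-well plates, with a 48-hour exposure period. Abbreviation: GI50, concentration required for 50% inhibition of growth.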 Activity calls are given as the source filed them. No stated cut-off is given here; in the data, active = GI50 up to about 1.1 µM and inactive = higher.
Legend:
Experiment in all cases: DTP human tumour cell line panel, 48 h
786-0 = system: 786-0
A498 = system: A498
A549 = system: A549
ACHN = system: ACHN
CAKI-1 = system: CAKI-1
CCRF-CEM = system: CCRF-CEM
COLO 205 = system: COLO 205
DLD-1 = system: DLD-1
DMS-114 = system: DMS-114
DMS-273 = system: DMS-273
EKVX = system: EKVX
HCC 2998 = system: HCC 2998
HCT-116 = system: HCT-116
HCT-15 = system: HCT-15
HL-60 = system: HL-60
HOP-18 = system: HOP-18
HOP-62 = system: HOP-62
HOP-92 = system: HOP-92
HT-29 = system: HT-29
IGROV-1 = system: IGROV-1
K562 = system: K562
KM-20L2 = system: KM-20L2
KM12 = system: KM12
LOX IMVI = system: LOX IMVI
LXFL 529 = system: LXFL 529
M14 = system: M14
M19-MEL = system: M19-MEL
MOLT-4 = system: MOLT-4
Malme-3M = system: Malme-3M
NCI-H226 = system: NCI-H226
NCI-H23 = system: NCI-H23
NCI-H460 = system: NCI-H460
NCI-H522 = system: NCI-H522
OVCAR-3 = system: OVCAR-3
OVCAR-4 = system: OVCAR-4
OVCAR-5 = system: OVCAR-5
RPMI-8226 = system: RPMI-8226
RXF 393 = system: RXF 393
RXF 631 = system: RXF 631
SF-268 = system: SF-268
SF-295 = system: SF-295
SF-539 = system: SF-539
SK-MEL-28 = system: SK-MEL-28
SK-MEL-2 = system: SK-MEL-2
SK-MEL-5 = system: SK-MEL-5
SK-OV-3 = system: SK-OV-3
SN12C = system: SN12C
SNB-19 = system: SNB-19
SNB-75 = system: SNB-75
SNB-78 = system: SNB-78
SR = system: SR
SW-620 = system: SW-620
U-251 = system: U-251
UACC-257 = system: UACC-257
UACC-62 = system: UACC-62
UO-31 = system: UO-31
OVCAR-8 = system: OVCAR-8
TK-10 = system: TK-10

For `CCNC(=O)COc1ccc(Br)cc1Br`, the GI50 (786-0) was > 100 µM (inactive), the GI50 (A498) was > 100 µM (inactive) and the GI50 (A549) was > 100 µM (inactive). For the same compound, the GI50 (ACHN) was > 100 µM (inactive), the GI50 (CAKI-1) was > 100 µM (inactive) and the GI50 (CCRF-CEM) was > 100 µM (inactive). For the same compound, the GI50 (COLO 205) was > 100 µM (inactive), the GI50 (DLD-1) was > 100 µM (inactive) and the GI50 (DMS-114) was > 100 µM (inactive). For the same compound, the GI50 (DMS-273) was > 100 µM (inactive), the GI50 (EKVX) was 1.98 µM (inactive) and the GI50 (HCC 2998) was > 100 µM (inactive). The GI50 (HCT-116) was > 100 µM (inactive), the GI50 (HCT-15) was greater than 100 µM and the GI50 (HL-60) was > 100 µM (inactive). For the same compound, the GI50 (HOP-18) was > 100 µM (inactive), the GI50 (HOP-62) was > 100 µM (inactive) and the GI50 (HOP-92) was 29 µM (inactive). For the same compound, the GI50 (HT-29) was > 100 µM (inactive), the GI50 (IGROV-1) was > 100 µM (inactive) and the GI50 (K562) was > 100 µM (inactive). For the same compound, the GI50 (KM-20L2) was > 100 µM (inactive), the GI50 (KM12) was > 100 µM (inactive) and the GI50 (LOX IMVI) was > 100 µM (inactive). The GI50 (LXFL 529) was > 100 µM (inactive), the GI50 (M14) was > 100 µM (inactive) and the GI50 (M19-MEL) was > 100 µM (inactive). For the same compound, the GI50 (MOLT-4) was > 100 µM (inactive), the GI50 (Malme-3M) was > 100 µM (inactive) and the GI50 (NCI-H226) was > 100 µM (inactive). For the same compound, the GI50 (NCI-H23) was > 100 µM (inactive), the GI50 (NCI-H460) was > 100 µM (inactive) and the GI50 (NCI-H522) was > 100 µM (inactive). The GI50 (OVCAR-3) was > 100 µM (inactive), the GI50 (OVCAR-4) was > 100 µM (inactive) and the GI50 (OVCAR-5) was > 100 µM (inactive). The GI50 (RPMI-8226) was > 100 µM (inactive), the GI50 (RXF 393) was > 100 µM (inactive) and the GI50 (RXF 631) was 69.7 µM (inactive). For the same compound, the GI50 (SF-268) was > 100 µM (inactive), the GI50 (SF-295) was > 100 µM (inactive) and the GI50 (SF-539) was > 100 µM (inactive). For the same compound, the GI50 (SK-MEL-28) was > 100 µM (inactive), the GI50 (SK-MEL-2) was 42.9 µM (inactive) and the GI50 (SK-MEL-5) was 86.5 µM (inactive). For the same compound, the GI50 (SK-OV-3) was > 100 µM (inactive), the GI50 (SN12C) was > 100 µM (inactive) and the GI50 (SNB-19) was 54.7 µM (inactive). For the same compound, the GI50 (SNB-75) was > 100 µM (inactive), the GI50 (SNB-78) was > 100 µM (inactive) and the GI50 (SR) was > 100 µM (inactive). For the same compound, the GI50 (SW-620) was > 100 µM (inactive), the GI50 (U-251) was > 100 µM (inactive) and the GI50 (UACC-257) was > 100 µM (inactive). The GI50 (UACC-62) was 33.3 µM (inactive) and the GI50 (UO-31) was > 100 µM (inactive).

In the case of `O=C(c1ccccc1)N1C2CCC1C(C(F)(F)F)=C2C(F)(F)F`, the GI50 (786-0) is reported as > 100 µM (inactive), the GI50 (A498) is reported as > 100 µM (inactive) and the GI50 (A549) is reported as > 100 µM (inactive). For the same compound, the GI50 (CAKI-1) was > 100 µM (inactive), the GI50 (CCRF-CEM) was > 100 µM (inactive) and the GI50 (COLO 205) was > 100 µM (inactive). The GI50 (DLD-1) was > 100 µM (inactive), the GI50 (DMS-114) was > 100 µM (inactive) and the GI50 (DMS-273) was > 100 µM (inactive). For the same compound, the GI50 (EKVX) was > 100 µM (inactive), the GI50 (HCC 2998) was > 100 µM (inactive) and the GI50 (HCT-116) was > 100 µM (inactive). The GI50 (HCT-15) was greater than 100 µM, the GI50 (HL-60) was 45.7 µM (inactive) and the GI50 (HOP-18) was > 100 µM (inactive). For the same compound, the GI50 (HOP-62) was > 100 µM (inactive), the GI50 (HOP-92) was > 100 µM (inactive) and the GI50 (HT-29) was > 100 µM (inactive). For the same compound, the GI50 (IGROV-1) was > 100 µM (inactive), the GI50 (K562) was > 100 µM (inactive) and the GI50 (KM-20L2) was > 100 µM (inactive). The GI50 (KM12) was > 100 µM (inactive), the GI50 (LOX IMVI) was > 100 µM (inactive) and the GI50 (LXFL 529) was > 100 µM (inactive). For the same compound, the GI50 (M14) was > 100 µM (inactive), the GI50 (M19-MEL) was > 100 µM (inactive) and the GI50 (MOLT-4) was > 100 µM (inactive). The GI50 (Malme-3M) was > 100 µM (inactive), the GI50 (NCI-H226) was > 100 µM (inactive) and the GI50 (NCI-H23) was > 100 µM (inactive). For the same compound, the GI50 (NCI-H460) was > 100 µM (inactive), the GI50 (NCI-H522) was > 100 µM (inactive) and the GI50 (OVCAR-3) was > 100 µM (inactive). For the same compound, the GI50 (OVCAR-4) was > 100 µM (inactive), the GI50 (OVCAR-5) was > 100 µM (inactive) and the GI50 (OVCAR-8) was > 100 µM (inactive). The GI50 (RPMI-8226) was > 100 µM (inactive), the GI50 (RXF 393) was > 100 µM (inactive) and the GI50 (RXF 631) was > 100 µM (inactive). For the same compound, the GI50 (SF-268) was > 100 µM (inactive), the GI50 (SF-295) was > 100 µM (inactive) and the GI50 (SF-539) was > 100 µM (inactive). The GI50 (SK-MEL-5) was > 100 µM (inactive), the GI50 (SK-OV-3) was > 100 µM (inactive) and the GI50 (SN12C) was > 100 µM (inactive). For the same compound, the GI50 (SNB-19) was > 100 µM (inactive), the GI50 (SNB-75) was > 100 µM (inactive) and the GI50 (SNB-78) was > 100 µM (inactive). For the same compound, the GI50 (SR) was > 100 µM (inactive), the GI50 (SW-620) was > 100 µM (inactive) and the GI50 (TK-10) was > 100 µM (inactive). For the same compound, the GI50 (U-251) was > 100 µM (inactive), the GI50 (UACC-257) was > 100 µM (inactive) and the GI50 (UACC-62) was > 100 µM (inactive). The GI50 (UO-31) was > 100 µM (inactive).

From ChEMBL document CHEMBL1201862, “PubChem BioAssay data set” (2004)
